Consider 9 molecules from PMC12951562, “SH2scan: Mapping SH2 Domain-Ligand Binding Selectivity for Inhibitors and Degraders” (Journal of Medicinal Chemistry, 2026).

Structures are written as SMILES. “And” between values parts separate entries of the source, which are not always exact repeats. Equal values may be shown once. Read-outs that look alike come from different tables or passages of the source. Non-standard residues stand in square brackets, D forms with d. Residues, ends and D or L forms follow the SMILES beside them. *: point of attachment. pY = N[C@@H](Cc1ccc(OP(=O)(O)O)cc1)C(=O)O; Caffeoyl = O=C(/C=C/c1ccc(O)c(O)c1)*

What all share (test): biochemical
Assay type in all cases: binding

Assay [1] concerns the target T1, APS (SH2B2) (Homo sapiens, UniProt O14492).
T1 construct: the DNA-tagged SH2 domain concentrations used in this study were <0.1 nM; made in house; host or cells: HEK293 (transient transfection; unpurified extract)
To be noted: for remaining activity at 10 µM / percent of DMSO vehicle control at 10 µM: read-out: percent of DMSO vehicle control.

Assay [2] addresses T2, CRKL (Homo sapiens, UniProt P46109).
T2 construct: the DNA-tagged SH2 domain concentrations used in this study were <0.1 nM; made in house; host or cells: HEK293 (transient transfection; unpurified extract)
To be noted: for remaining activity at 10 µM / percent of DMSO vehicle control at 10 µM: read-out: percent of DMSO vehicle control.

Assay [3] deals with T3, FES (Homo sapiens, UniProt P07332).
T3 construct: the DNA-tagged SH2 domain concentrations used in this study were <0.1 nM; made in house; host or cells: HEK293 (transient transfection; unpurified extract)
T3 sequence (P07332 460-549 limits assumed): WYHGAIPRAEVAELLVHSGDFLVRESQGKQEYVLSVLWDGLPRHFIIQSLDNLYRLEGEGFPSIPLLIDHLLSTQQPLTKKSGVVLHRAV
Particulars: for remaining activity at 10 µM: read-out: percent of DMSO vehicle control.

For assay [4], the target named is T4, FGR (Homo sapiens, UniProt P09769).
T4 construct: the DNA-tagged SH2 domain concentrations used in this study were <0.1 nM; made in house; host or cells: HEK293 (transient transfection; unpurified extract)
T4 sequence (P09769 144-241 limits assumed): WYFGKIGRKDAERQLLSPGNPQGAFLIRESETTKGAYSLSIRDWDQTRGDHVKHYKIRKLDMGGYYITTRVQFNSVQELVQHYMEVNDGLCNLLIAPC
To be noted: for remaining activity at 10 µM: read-out: percent of DMSO vehicle control.

For assay [5], the target named is T5, STAT1 (Homo sapiens, UniProt P42224).
T5 construct: made in house; host or cells: HEK293 (transient transfection), unpurified extract
T5 sequence (P42224 1-750): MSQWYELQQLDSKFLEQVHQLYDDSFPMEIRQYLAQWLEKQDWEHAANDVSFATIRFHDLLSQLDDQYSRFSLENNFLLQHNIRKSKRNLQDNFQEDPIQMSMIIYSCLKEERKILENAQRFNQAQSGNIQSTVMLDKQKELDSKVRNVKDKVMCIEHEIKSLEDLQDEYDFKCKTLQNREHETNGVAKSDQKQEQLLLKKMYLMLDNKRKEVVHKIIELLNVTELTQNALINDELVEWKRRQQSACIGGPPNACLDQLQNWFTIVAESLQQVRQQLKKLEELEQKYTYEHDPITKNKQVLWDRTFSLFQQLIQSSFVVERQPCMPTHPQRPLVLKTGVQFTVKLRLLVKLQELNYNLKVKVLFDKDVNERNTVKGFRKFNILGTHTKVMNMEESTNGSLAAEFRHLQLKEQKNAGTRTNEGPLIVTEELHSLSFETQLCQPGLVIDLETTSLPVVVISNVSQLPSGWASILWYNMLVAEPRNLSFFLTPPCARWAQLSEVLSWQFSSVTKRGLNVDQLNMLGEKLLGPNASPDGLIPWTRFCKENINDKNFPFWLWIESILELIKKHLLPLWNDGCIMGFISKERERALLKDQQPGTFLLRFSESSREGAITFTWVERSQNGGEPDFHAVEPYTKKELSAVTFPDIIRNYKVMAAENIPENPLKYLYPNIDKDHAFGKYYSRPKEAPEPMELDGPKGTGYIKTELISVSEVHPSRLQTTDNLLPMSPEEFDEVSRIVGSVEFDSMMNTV
Particulars: for remaining activity at 10 µM: read-out: percent of DMSO vehicle control.

Assay [6] addresses T6, STAT2 (Homo sapiens, UniProt P52630).
T6 construct: made in house; host or cells: HEK293 (transient transfection), unpurified extract
To be noted: for remaining activity at 10 µM / percent of DMSO vehicle control at 10 µM: read-out: percent of DMSO vehicle control.

The target of assay [7] is T7, VAV3 (Homo sapiens, UniProt Q9UKW4).
T7 construct: made in house; host or cells: HEK293 (transient transfection), unpurified extract
T7 sequence (Q9UKW4 1-847): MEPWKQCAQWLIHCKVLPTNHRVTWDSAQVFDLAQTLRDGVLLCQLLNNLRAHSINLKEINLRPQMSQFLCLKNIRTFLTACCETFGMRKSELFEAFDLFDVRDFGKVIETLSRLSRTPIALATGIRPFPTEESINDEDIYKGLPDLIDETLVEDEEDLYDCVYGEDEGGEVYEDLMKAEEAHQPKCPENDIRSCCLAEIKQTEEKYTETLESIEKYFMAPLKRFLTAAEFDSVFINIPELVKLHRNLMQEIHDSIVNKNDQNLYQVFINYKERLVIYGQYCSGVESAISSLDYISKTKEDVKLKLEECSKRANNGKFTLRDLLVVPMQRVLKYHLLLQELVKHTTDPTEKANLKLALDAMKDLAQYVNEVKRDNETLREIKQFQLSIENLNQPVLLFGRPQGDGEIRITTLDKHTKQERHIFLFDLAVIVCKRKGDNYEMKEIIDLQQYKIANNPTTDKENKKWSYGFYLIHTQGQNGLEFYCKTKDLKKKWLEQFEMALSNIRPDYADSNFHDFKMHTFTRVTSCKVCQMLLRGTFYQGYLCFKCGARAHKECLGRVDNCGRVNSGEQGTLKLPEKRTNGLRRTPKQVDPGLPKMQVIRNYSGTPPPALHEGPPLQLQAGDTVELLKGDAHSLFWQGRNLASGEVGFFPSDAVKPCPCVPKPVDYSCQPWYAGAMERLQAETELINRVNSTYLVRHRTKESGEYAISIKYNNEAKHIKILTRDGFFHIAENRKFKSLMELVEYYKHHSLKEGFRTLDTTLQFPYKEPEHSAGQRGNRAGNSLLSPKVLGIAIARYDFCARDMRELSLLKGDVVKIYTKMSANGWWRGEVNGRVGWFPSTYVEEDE
To be noted: for remaining activity at 10 µM / percent of DMSO vehicle control at 10 µM: read-out: percent of DMSO vehicle control.

For orientation: Kd means a measure of binding affinity in units of concentration.

T6 sequence (P52630 whole entry): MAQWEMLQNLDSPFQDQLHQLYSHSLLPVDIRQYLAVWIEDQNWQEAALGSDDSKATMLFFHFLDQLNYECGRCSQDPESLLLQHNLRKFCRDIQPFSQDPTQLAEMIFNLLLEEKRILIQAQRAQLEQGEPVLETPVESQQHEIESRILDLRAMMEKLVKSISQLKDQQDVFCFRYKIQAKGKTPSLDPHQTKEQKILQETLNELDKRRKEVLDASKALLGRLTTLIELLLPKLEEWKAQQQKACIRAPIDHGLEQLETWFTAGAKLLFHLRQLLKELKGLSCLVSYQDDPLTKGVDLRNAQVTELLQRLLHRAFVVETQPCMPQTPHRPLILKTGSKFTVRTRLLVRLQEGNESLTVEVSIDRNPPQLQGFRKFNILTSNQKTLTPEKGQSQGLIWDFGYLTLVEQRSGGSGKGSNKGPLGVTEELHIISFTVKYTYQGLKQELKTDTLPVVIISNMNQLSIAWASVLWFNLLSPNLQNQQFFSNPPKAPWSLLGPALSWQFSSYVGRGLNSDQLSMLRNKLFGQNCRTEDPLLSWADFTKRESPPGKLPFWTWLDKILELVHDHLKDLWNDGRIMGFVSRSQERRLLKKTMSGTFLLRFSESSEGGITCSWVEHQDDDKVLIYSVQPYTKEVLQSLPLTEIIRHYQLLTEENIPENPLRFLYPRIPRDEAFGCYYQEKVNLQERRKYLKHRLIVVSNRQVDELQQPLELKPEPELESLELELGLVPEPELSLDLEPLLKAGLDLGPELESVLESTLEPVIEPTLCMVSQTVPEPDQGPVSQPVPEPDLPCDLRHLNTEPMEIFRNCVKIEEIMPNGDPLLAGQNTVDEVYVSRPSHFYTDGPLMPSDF
T1 sequence (O14492 417-515 limits assumed): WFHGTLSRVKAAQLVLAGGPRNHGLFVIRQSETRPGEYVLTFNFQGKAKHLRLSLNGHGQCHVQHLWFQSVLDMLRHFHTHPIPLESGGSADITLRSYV
T2 sequence (P46109 14-102 limits assumed): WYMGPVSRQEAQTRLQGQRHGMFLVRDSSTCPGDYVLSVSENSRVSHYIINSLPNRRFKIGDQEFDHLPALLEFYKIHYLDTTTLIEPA

`C/C(=C\C(=O)N[C@H](C(=O)N1CCC[C@H]1C(=O)N(c1ccccc1)c1ccc(I)cc1)C(C)(C)C)c1ccc(OP(=O)(O)O)cc1` [STAT6-IN-1]: the remaining activity at 10 µM in assay [1] (primary screen, 10 μM) is 45.3 ± 5.2%; in assay [2] (primary screen, 10 μM), 42.4 ± 0.9%; in assay [3] (primary screen, 10 μM) it was 66.3 ± 6.4%; in assay [4] (primary screen, 10 μM) it was 20.7 ± 23.8%; in assay [5] (primary screen, 10 μM) it was 0%; in assay [6] (primary screen, 10 μM), 35.1 ± 16.6%. Moreover, the remaining activity at 10 µM in assay [7] (primary screen, 10 μM) is 40.3 ± 1.3%. Moreover, the Kd is 2300 ± 550 nM in assay [4] (dose-response, read-out: KD) and 330 ± 73 nM in assay [5] (dose-response, read-out: KD).

With `CC[C@H](C)[C@H](NC(=O)[C@H](CCC(=O)O)NC(=O)[C@H](CCC(=O)O)NC(=O)[C@H](Cc1ccc(OP(=O)(O)O)cc1)NC(=O)/C=C/c1ccc(O)c(O)c1)C(=O)N[C@@H](CCC(=O)O)C(=O)O` [Caffeic acid-pYEEIE] (Caffeoyl-[pY]EEIE-OH), the dissociation constant (Kd) worked out at 2300 ± 450 nM in assay [1]; 24 ± 4.9 nM in assay [3]; 2.7 ± 5.3 nM in assay [4]; 3.6 ± 0.18 nM in assay [6]; 70 ± 12 nM in assay [7]. Further, the percent of DMSO vehicle control at 10 µM worked out at 2.2 ± 0.3% in assay [1], 42.1 ± 6% in assay [2], 0% in assay [6] and 0.4 ± 0.1% in assay [7]. Also, the remaining activity at 10 µM in assay [3] was found to be 2.2 ± 0.4%; in assay [4], 0%; in assay [5], 27.1 ± 21.3%. Besides, in assay [5] (dose-response), the KD entry is recorded as “No Hit”.

For `CC(=O)N1CC[C@H]2CC[C@@H](C(=O)N[C@@H](CCC(N)=O)C(=O)NC(c3ccccc3)c3ccccc3)N2C(=O)[C@@H](NC(=O)c2cc3cc(C(F)(F)P(=O)(O)O)ccc3[nH]2)C1` [SI-109], the percent of DMSO vehicle control at 10 µM in assay [1] came out at 130%; in assay [2], 125%; in assay [6] it was 100%; in assay [7], 130%. The figures for the remaining activity at 10 µM in assay [3], in assay [4] and in assay [5] were 160%, 128% and 0%, respectively. In addition, the Kd in assay [5] was found to be 180 ± 35 nM; in assay [6], 1300 ± 1300 nM.

As to `O=C(CCl)Nc1cccc(CNC(=O)[C@H](Cc2ccc(OP(=O)(O)O)cc2)NC(=O)Cc2ccc(F)cc2)c1` [MN551], the remaining activity at 10 µM in assay [1] (primary screen, 10 μM) came to 94.2 ± 3.2%; in assay [2] (primary screen, 10 μM), 202%; in assay [3] (primary screen, 10 μM), 82.1 ± 4.3%; in assay [4] (primary screen, 10 μM), 49.8%; in assay [5] (primary screen, 10 μM) it was 49.8 ± 4.1%; in assay [6] (primary screen, 10 μM), 217%. The remaining activity at 10 µM in assay [7] (primary screen, 10 μM) was found to be 113%.

On to `NC(=O)CC[C@H](NC(=O)[C@@H]1CC[C@@H]2CCN(C(=O)CCCCCC#Cc3cccc4c3CN(C3CCC(=O)NC3=O)C4=O)C[C@H](NC(=O)c3cc4cc(C(F)(F)P(=O)(O)O)ccc4[nH]3)C(=O)N21)C(=O)NC(c1ccccc1)c1ccccc1` (stereo partly drawn) [SD-36], for which the percent of DMSO vehicle control at 10 µM in assay [1] turned out to be 140 ± 6.1%; in assay [2], 119%; in assay [6], 0.1 ± 1.3%; in assay [7] it was 82.1 ± 3.8%. Besides, the figures for the remaining activity at 10 µM in assay [3], in assay [4] and in assay [5] were 46.3 ± 7.5%, 82 ± 28% and 9.1%, respectively. In addition, the Kd in assay [5] (dose-response) was 180 ± 61 nM; in assay [6] (dose-response) it was 450 nM and 454 nM.

Consider `CC(=O)N[C@@H](Cc1ccc(CP(=O)(O)O)cc1)C(=O)NC1(C(=O)N[C@@H](CC(N)=O)C(=O)NCCCc2c(O)ccc3ccccc23)CCCCC1` [CGP78850], for which the percent of DMSO vehicle control at 10 µM in assay [1] came out at 128 ± 7.6%; in assay [2], 36.4 ± 18.5%; in assay [6] it was 27.3%; in assay [7], 21.7 ± 3.7%. In addition, the remaining activity at 10 µM in assay [3] was found to be 52 ± 0.5%; in assay [4] it was 43.3 ± 1.3%; in assay [5] it was 71.2 ± 2.1%. Also, in assay [6] (dose-response), the KD result is “No Hit”. In addition, binding in assay [7] was characterised by a dissociation constant (Kd) of 860 nM.

Regarding `CC[C@H](C)[C@H](NC(=O)[C@H](CCC(=O)O)NC(=O)[C@H](CCC(=O)O)NC(=O)[C@H](Cc1ccc(OP(=O)(O)O)cc1)NC(C)=O)C(=O)N[C@@H](CCC(=O)O)C(N)=O` [Ac-pYEEIE-NH2] (Ac-[pY]EEIE-NH2), the “percent of DMSO vehicle control” value in assay [1] (primary screen, 10 μM) turned out to be 121.8%; in assay [2] (primary screen, 10 μM), 131.3%; in assay [3] (primary screen, 10 μM), 24.1±2.4%; in assay [4] (primary screen, 10 μM), 49.9±0.9%; in assay [5] (primary screen, 10 μM), 69.3%; in assay [6] (primary screen, 10 μM), 53.6±1.3%. The “percent of DMSO vehicle control” value in assay [7] (primary screen, 10 μM) was 75.8%. Moreover, in assay [3], the dissociation constant (Kd) is 4200 nM.

`O=C(COc1ccc2cc(C(=O)Nc3ccccc3)ccc2c1)NCc1ccc(OP(=O)(O)O)c(OP(=O)(O)O)c1` [Stafib-1]: the remaining activity at 10 µM in assay [1] (primary screen, 10 μM) turned out to be 64.6 ± 31.3%; in assay [2] (primary screen, 10 μM), 120%; in assay [3] (primary screen, 10 μM), 116%; in assay [4] (primary screen, 10 μM), 34.3%; in assay [5] (primary screen, 10 μM) it was 48.2 ± 5.4%; in assay [6] (primary screen, 10 μM), 153%. Also, the remaining activity at 10 µM in assay [7] (primary screen, 10 μM) was found to be 102%. For the same molecule, the KD result in assay [4] (dose-response) is on record as “No Hit”. The Kd worked out at 37000 nM in assay [5] (dose-response, read-out: KD) and 9300 ± 4300 nM in assay [6] (dose-response, read-out: KD).

In the case of `CC(C)(C)[C@H](NC(=O)/C=C/c1ccc(OP(=O)(O)O)cc1)C(=O)N1CCC[C@H]1C(=O)N(c1ccccc1)c1ccc(I)cc1` [STAT6-IN-3], the remaining activity at 10 µM was 66.4 ± 17.9% in assay [1] (primary screen, 10 μM); 102 ± 19.9% in assay [2] (primary screen, 10 μM); 82 ± 13.1% in assay [3] (primary screen, 10 μM); 32.1 ± 40.1% in assay [4] (primary screen, 10 μM); 0.7 ± 0.6% in assay [5] (primary screen, 10 μM); 60.3 ± 12.5% in assay [6] (primary screen, 10 μM). In assay [7] (primary screen, 10 μM), the remaining activity at 10 µM turned out to be 76.8 ± 21.6%. Moreover, the KD entry in assay [4] (dose-response) is recorded as “No Hit”. In addition, the equilibrium dissociation constant (Kd) was 670 ± 330 nM in assay [5] (dose-response, read-out: KD) and 510 ± 83 nM in assay [6] (dose-response, read-out: KD).
